Test results published in US20230085307A1, “PYRIDAZINONE COMPOUND AND HERBICIDE” (NISSAN CHEMICAL CORPORATION, priority 2019, published 2023).

Tests used:
[1] = test system: southern crabgrass; assay: Test Example 5: herbicidal effect by foliage application, plastic box (Table 20, symbol F); format: in vivo, southern crabgrass (Digitaria ciliaris); details: for herbicidal effect on southern crabgrass (F): foliage application, 320 g/ha, three weeks after application
Procedure, shortened: (§1)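 Plants were sown into sterilized diluvial soil under about 1.5 cm cover and kept in a greenhouse at 25° C. to 30° C. Fourteen days on, foliage received an even spray of the diluted emulsion. Herbicidal or crop effect was judged three weeks afterwards.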

[2] = test system: barnyard grass; assay: Test Example 3: herbicidal effect by foliage application, Wagner pot (Table 18, symbol H); format: in vivo, barnyard grass (Echinochloa crus-galli); details: for herbicidal effect on barnyard grass (H): 320 g/ha
Procedure, shortened: (§2)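 Plants were sown in alluvial soil held under 0.1–0.5 cm standing water and grown 14 days in a greenhouse at 25–30 °C. An emulsifiable formulation, water-diluted to the set dose, was then sprayed onto the foliage, and effects were scored three weeks later using previously defined criteria.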

[3] = test system: Italian ryegrass; assay: Test Example 5: herbicidal effect by foliage application, plastic box (Table 20, symbol K); format: in vivo, Italian ryegrass (Lolium multiflorum); details: for herbicidal effect on Italian ryegrass (K): foliage application, 320 g/ha, three weeks after application
Procedure, shortened: as §1

[4] = test system: Chinese sprangletop; assay: Test Example 3: herbicidal effect by foliage application, Wagner pot (Table 18, symbol D); format: in vivo, chinese sprangletop (Leptochloa chinensis); details: for herbicidal effect on Chinese sprangletop (D): 320 g/ha
Procedure, shortened: as §2

[5] = test system: wild oat; assay: Test Example 5: herbicidal effect by foliage application, plastic box (Table 20, symbol I); format: in vivo, wild oat (Avena fatua); details: for herbicidal effect on wild oat (I): foliage application, 320 g/ha, three weeks after application
Procedure, shortened: as §1

[6] = test system: rice flat sedge; assay: Test Example 3: herbicidal effect by foliage application, Wagner pot (Table 18, symbol E); format: in vivo, rice flat sedge (Cyperus iria); details: for herbicidal effect on rice flat sedge (E): 320 g/ha
Procedure, shortened: as §2

[7] = test system: redroot pigweed; assay: Test Example 5: herbicidal effect by foliage application, plastic box (Table 20, symbol N); format: in vivo, redroot pigweed (Amaranthus retroflexus); details: amount of applied herbicide 320 g/ha; foliage application after 14-day growth; evaluated three weeks after application
Text: [Test Example 5] Herbicidal Effect Test by Foliage Application
Sterilized diluvial soil was placed in a plastic box having a length of 21 cm, a width of 13 cm, and a depth of 7 cm. The seeds of each of southern crabgrass, green foxtail, barnyard grass, wild oat, blackgrass, Italian ryegrass, windgrass, velvetleaf, redroot pigweed, lambsquarters, chickweed, false cleavers, persian speedwell, corn, soybean, rice, wheat, beet, and rapeseed were sowed in a spot-like manner and covered with the soil having a thickness of about 1.5 cm. Thereafter, the plants were grown in a greenhouse at 25° C. to 30° C. After 14-day growth of the plants, the emulsion agent of the compound of the present invention prepared according to Formulation Example 2 was diluted with water so as to achieve a predetermined herbicide amount, and the diluted emulsion agent was uniformly applied to a foliage part with a small-sized spray. Three weeks after the herbicide application, the effect of the herbicide on each plant was evaluated according to the criteria of Test Example 1.

[8] = test system: blackgrass; assay: Test Example 5: herbicidal effect by foliage application, plastic box (Table 20, symbol J); format: in vivo, blackgrass (Alopecurus myosuroides); details: for herbicidal effect on blackgrass (J): foliage application, 320 g/ha, three weeks after application
Procedure, shortened: as §1

[9] = test system: barnyard grass; assay: Test Example 5: herbicidal effect by foliage application, plastic box (Table 20, symbol H); format: in vivo, barnyard grass (Echinochloa crus-galli); details: for herbicidal effect on barnyard grass (H): foliage application, 320 g/ha, three weeks after application
Procedure, shortened: as §1

[10] = test system: green foxtail; assay: Test Example 5: herbicidal effect by foliage application, plastic box (Table 20, symbol G); format: in vivo, green foxtail (Setaria viridis); details: for herbicidal effect on green foxtail (G): foliage application, 320 g/ha, three weeks after application
Procedure, shortened: as §1

[11] = test system: velvetleaf; assay: Test Example 5: herbicidal effect by foliage application, plastic box (Table 20, symbol M); format: in vivo, velvetleaf (Abutilon theophrasti); details: for herbicidal effect on velvetleaf (M): foliage application, 320 g/ha, three weeks after application
Procedure, shortened: as §1

[12] = test system: persian speedwell; assay: Test Example 5: herbicidal effect by foliage application, plastic box (Table 20, symbol R); format: in vivo, Persian speedwell (Veronica persica); details: for herbicidal effect on persian speedwell (R): foliage application, 320 g/ha, three weeks after application
Procedure, shortened: as §1

[13] = test system: lambsquarters; assay: Test Example 5: herbicidal effect by foliage application, plastic box (Table 20, symbol O); format: in vivo, lambsquarters (Chenopodium album); details: for herbicidal effect on lambsquarters (O): foliage application, 320 g/ha, three weeks after application
Procedure, shortened: as §1

[14] = test system: windgrass; assay: Test Example 5: herbicidal effect by foliage application, plastic box (Table 20, symbol L); format: in vivo, windgrass (Apera spica-venti); details: for herbicidal effect on windgrass (L): foliage application, 320 g/ha, three weeks after application
Procedure, shortened: as §1

[15] = amount of applied herbicide 320 g/ha, foliage application after 14-day growth, evaluated three weeks after application
[16] = amount of applied herbicide 320 g/ha

Structure (SMILES)	herbicidal effect on barnyard grass (H) [2]	herbicidal effect on Chinese sprangletop (D) [4]	herbicidal effect on rice flat sedge (E) [6]	herbicidal effect on southern crabgrass (F) [1]	herbicidal effect on Italian ryegrass (K) [3]	herbicidal effect on wild oat (I) [5]	herbicidal effect on blackgrass (J) [8]	herbicidal effect on barnyard grass (H) [9]	herbicidal effect on green foxtail (G) [10]	herbicidal effect on velvetleaf (M) [11]	herbicidal effect on persian speedwell (R) [12]	herbicidal effect on lambsquarters (O) [13]	herbicidal effect on windgrass (L) [14]	further results
COCc1ccccc1-c1sc2c(Cl)cccc2c1-c1c(O)c(C)nn(C)c1=O [4-081]	3 (Herbicidal rate of 40% or more and less than 70%)	0 (Herbicidal rate of 5% or less (almost no effect))	0 (Herbicidal rate of 5% or less (almost no effect))	–	–	–	–	–	–	–	–	–	–	Herbicidal effect by foliage application, F: southern crabgrass [1, 15]: 0 (Herbicidal rate of 5% or less (almost no effect)); Herbicidal effect by foliage application, K: Italian ryegrass [3, 15]: 0 (Herbicidal rate of 5% or less (almost no effect)); Herbicidal effect by foliage application, I: wild oat [5, 15]: 0 (Herbicidal rate of 5% or less (almost no effect)); Herbicidal effect by foliage application, N: redroot pigweed [7]: 1 (Herbicidal rate of 5% or more and less than 20%); Herbicidal effect by foliage application, J: blackgrass [8, 15]: 0 (Herbicidal rate of 5% or less (almost no effect)); Herbicidal effect by foliage application, H: barnyard grass [9, 15]: 3 (Herbicidal rate of 40% or more and less than 70%); Herbicidal effect by foliage application, G: green foxtail [10, 15]: 3 (Herbicidal rate of 40% or more and less than 70%); Herbicidal effect by foliage application, M: velvetleaf [11, 15]: 3 (Herbicidal rate of 40% or more and less than 70%); Herbicidal effect by foliage application, R: persian speedwell [12, 15]: 1 (Herbicidal rate of 5% or more and less than 20%); Herbicidal effect by foliage application, O: lambsquarters [13, 15]: 1 (Herbicidal rate of 5% or more and less than 20%); Herbicidal effect by foliage application, L: windgrass [14, 15]: 0 (Herbicidal rate of 5% or less (almost no effect))
COc1ccccc1-c1sc2c(F)cc(F)cc2c1-c1c(O)c(C)nn(C)c1=O [6-001]	3 (Herbicidal rate of 40% or more and less than 70%)	2 (Herbicidal rate of 20% or more and less than 40%)	4 (Herbicidal rate of 70% or more and less than 90%)	0 (Herbicidal rate of 5% or less (almost no effect))	0 (Herbicidal rate of 5% or less (almost no effect))	0 (Herbicidal rate of 5% or less (almost no effect))	0 (Herbicidal rate of 5% or less (almost no effect))	3 (Herbicidal rate of 40% or more and less than 70%)	2 (Herbicidal rate of 20% or more and less than 40%)	4 (Herbicidal rate of 70% or more and less than 90%)	0 (Herbicidal rate of 5% or less (almost no effect))	3 (Herbicidal rate of 40% or more and less than 70%)	0 (Herbicidal rate of 5% or less (almost no effect))	–
CCOc1ccccc1-c1oc2ccc(Cl)cc2c1-c1c(O)c(C)nn(C)c1=O [9-003]	–	–	–	0 (Herbicidal rate of 5% or less (almost no effect))	0 (Herbicidal rate of 5% or less (almost no effect))	0 (Herbicidal rate of 5% or less (almost no effect))	0 (Herbicidal rate of 5% or less (almost no effect))	0 (Herbicidal rate of 5% or less (almost no effect))	0 (Herbicidal rate of 5% or less (almost no effect))	3 (Herbicidal rate of 40% or more and less than 70%)	3 (Herbicidal rate of 40% or more and less than 70%)	0 (Herbicidal rate of 5% or less (almost no effect))	0 (Herbicidal rate of 5% or less (almost no effect))	Herbicidal effect on H (barnyard grass), foliage application [2, 16]: 3 (Herbicidal rate of 40% or more and less than 70%); Herbicidal effect on D (Chinese sprangletop), foliage application [4, 16]: 0 (Herbicidal rate of 5% or less (almost no effect)); Herbicidal effect on E (rice flat sedge), foliage application [6, 16]: 1 (Herbicidal rate of 5% or more and less than 20%)
